From US6187802A, “Substituted 4-arylmethylene-2-imino-2,3-dihydrothiazoles and derivatives and their pharmaceutical use” (Knoll Aktiengesellschaft, priority 1997, dated 2001)
Counter-ions that a name gives are not always drawn.

Columns and labels:
[1] = target: T1, dopamine (DA) reuptake sites (Rattus norvegicus, UniProt P23977); test: displacement of [3H]GBR 12935 from dopamine reuptake sites, striatal membranes; assay type: binding; details: 10^-6 M test compound, [3H]GBR 12935 1 nM, one test only, read-out: DA uptake (% displacement of specific binding of tritiated ligand)
T1 construct: Striatal tissue from the brains of male Charles River rats weighing 150-250 g; from tissue; host or cells: rat brain striatum (crude synaptosomes in A1, washed membranes in A4)
T1 sequence (P23977 whole entry): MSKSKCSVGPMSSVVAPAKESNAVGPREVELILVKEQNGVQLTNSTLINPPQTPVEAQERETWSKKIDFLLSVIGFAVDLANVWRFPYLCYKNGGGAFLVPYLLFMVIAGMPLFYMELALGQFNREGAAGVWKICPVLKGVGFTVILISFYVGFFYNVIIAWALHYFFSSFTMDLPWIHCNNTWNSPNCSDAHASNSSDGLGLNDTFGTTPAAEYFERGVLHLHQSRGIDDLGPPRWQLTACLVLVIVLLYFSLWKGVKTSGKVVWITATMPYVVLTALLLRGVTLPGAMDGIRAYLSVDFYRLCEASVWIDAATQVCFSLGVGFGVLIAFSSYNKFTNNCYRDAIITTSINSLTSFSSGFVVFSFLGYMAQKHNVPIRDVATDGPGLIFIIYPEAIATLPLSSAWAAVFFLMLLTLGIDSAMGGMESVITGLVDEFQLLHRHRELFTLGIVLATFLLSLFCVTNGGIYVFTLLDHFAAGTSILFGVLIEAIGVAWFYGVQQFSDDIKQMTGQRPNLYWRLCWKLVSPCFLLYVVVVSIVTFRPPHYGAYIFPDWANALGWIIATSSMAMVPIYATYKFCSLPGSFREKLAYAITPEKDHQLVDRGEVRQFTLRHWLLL
In short: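 Rat striatal membranes (male rats, 150-250 g) incubated 90 min at 4 °C with 1 nM [3H]GBR 12935 in 50 mM Tris-HCl pH 7.4, 200 mM NaCl, 5 mM KCl; non-specific binding with 1 μM mazindol. Filtration, scintillation counting; value is % displacement of specific binding at 10^-6 M, single test; IA means <50%.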

[2] = target: T2, 5-hydroxytryptamine (5-HT) reuptake sites (Rattus norvegicus, UniProt P31652); test: displacement of [3H]paroxetine from 5-HT reuptake sites, frontal cortical membranes; assay type: binding; details: 10^-6 M test compound, [3H]paroxetine 30 pM, one test only, read-out: 5-HT uptake (% displacement of specific binding of tritiated ligand)
T2 construct: Frontal cortical tissue from the brains of male Sprague-Dawley rats; from tissue; host or cells: rat brain frontal cortex (crude synaptosomes in A2, washed membranes in A5)
T2 sequence (P31652 whole entry): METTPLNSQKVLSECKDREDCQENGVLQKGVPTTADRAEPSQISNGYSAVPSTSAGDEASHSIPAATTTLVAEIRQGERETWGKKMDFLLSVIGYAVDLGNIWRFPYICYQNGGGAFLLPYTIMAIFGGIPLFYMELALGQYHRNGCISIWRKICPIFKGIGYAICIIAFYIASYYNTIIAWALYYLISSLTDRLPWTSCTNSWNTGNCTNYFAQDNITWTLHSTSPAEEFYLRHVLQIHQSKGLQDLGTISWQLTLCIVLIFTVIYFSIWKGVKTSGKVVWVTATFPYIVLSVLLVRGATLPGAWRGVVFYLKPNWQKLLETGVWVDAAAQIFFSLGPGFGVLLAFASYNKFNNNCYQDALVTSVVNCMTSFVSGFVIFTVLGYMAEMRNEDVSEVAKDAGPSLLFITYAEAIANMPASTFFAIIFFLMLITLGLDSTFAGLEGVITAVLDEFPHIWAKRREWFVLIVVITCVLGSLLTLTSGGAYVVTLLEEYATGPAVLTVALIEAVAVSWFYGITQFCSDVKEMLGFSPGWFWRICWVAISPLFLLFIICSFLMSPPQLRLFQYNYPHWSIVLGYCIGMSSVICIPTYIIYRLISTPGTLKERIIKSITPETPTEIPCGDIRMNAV
In short: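 Rat frontal cortex membranes (male, 150-250 g; 2 mg wet tissue/tube) in 50 mM Tris-HCl pH 7.5 with 120 mM NaCl and 5 mM KCl, incubated 2 h at 22 °C with 30 pM [3H]paroxetine and compound at 10^-6 M. Citalopram 1 μM defined non-specific binding; values are % displacement of specific binding from a single test, filtration and scintillation counting.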

[3] = target: T3, noradrenaline (NA) reuptake sites (Rattus norvegicus, UniProt Q63380); test: displacement of [3H]nisoxetine from noradrenaline reuptake sites, frontal cortical membranes; details: 10^-6 M test compound, [3H]nisoxetine 0.6 nM, one test only, read-out: NA uptake (% displacement of specific binding of tritiated ligand)
T3 construct: Frontal cortical tissue from the brains of male Sprague-Dawley rats; from tissue; host or cells: rat brain frontal cortex (crude synaptosomes in A3, washed membranes in A6)
T3 sequence (Q63380 1-617): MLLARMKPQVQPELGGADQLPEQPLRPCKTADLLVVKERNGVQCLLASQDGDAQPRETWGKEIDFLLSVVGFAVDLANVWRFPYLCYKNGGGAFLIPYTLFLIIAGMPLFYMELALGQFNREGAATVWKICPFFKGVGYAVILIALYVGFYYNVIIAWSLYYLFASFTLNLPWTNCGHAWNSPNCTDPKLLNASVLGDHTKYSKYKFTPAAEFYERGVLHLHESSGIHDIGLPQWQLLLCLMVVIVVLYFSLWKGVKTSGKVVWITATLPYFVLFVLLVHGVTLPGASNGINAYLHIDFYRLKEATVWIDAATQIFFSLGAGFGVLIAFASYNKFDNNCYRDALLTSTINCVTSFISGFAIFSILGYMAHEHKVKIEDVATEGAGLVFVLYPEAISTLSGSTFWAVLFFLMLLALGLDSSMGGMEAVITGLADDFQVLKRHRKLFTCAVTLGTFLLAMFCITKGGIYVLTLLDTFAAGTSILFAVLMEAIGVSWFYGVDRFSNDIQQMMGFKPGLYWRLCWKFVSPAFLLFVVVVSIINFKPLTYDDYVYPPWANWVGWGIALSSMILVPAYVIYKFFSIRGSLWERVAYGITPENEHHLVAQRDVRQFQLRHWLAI
In short: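 Washed male rat frontal cortex membranes in 50 mM Tris pH 7.4, 300 mM NaCl, 5 mM KCl, incubated 4 h at 4 °C with 0.6 nM [3H]nisoxetine and test compound at 10^-6 M; mazindol (1 μM) defined non-specific binding. Filtration, scintillation counting; % displacement of specific binding, single test.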

`CCOc1ccc(N=c2scc(C3(c4ccc5ccccc5c4)CCC3)n2-c2ccc(OCC)cc2)cc1` [Example 54, 3-(4-Ethoxyphenyl)-2-(4-ethoxyphenylimino)-4-[1-(2-naphthyl)cyclobutyl]-2,3-dihydrothiazole hydrobromide] showed an inhibition at 1 µM [1] of 69%, an inhibition at 1 µM [2] of less than 50% and an inhibition at 1 µM [3] of less than 50%.
Work on `COc1ccc(CCN=c2scc(C3(c4ccc5ccccc5c4)CCC3)n2CCc2ccc(OC)c(OC)c2)cc1OC` [Example 55, 3-(3,4-Dimethoxyphenethyl)-2-(3,4-dimethoxyphenethylimino)-4-[1-(2-naphthyl)cyclobutyl]-2,3-dihydrothiazole hydrobromide] yielded an inhibition at 1 µM [1] of 91%, an inhibition at 1 µM [2] of less than 50% and an inhibition at 1 µM [3] of less than 50%.
For `CCCCN=c1scc(C2(c3ccc(Cl)cc3)CCC2)n1CCCC` [Example 56, 3-Butyl-2-butylimino-4-[1-(4-chlorophenyl)cyclobutyl]-2,3-dihydrothiazole hydrobromide], the inhibition at 1 µM [1] was 93%, the inhibition at 1 µM [2] was less than 50% and the inhibition at 1 µM [3] was less than 50%.
`CCCCN=c1scc(C2(c3ccc(Br)cc3)CCC2)n1CCCC` [Example 57, 4-[1-(4-Bromophenyl)cyclobutyl]-3-butyl-2-butylimino-2,3-dihydrothiazole hydrobromide] showed an inhibition at 1 µM [1] of 94%, an inhibition at 1 µM [2] of less than 50% and an inhibition at 1 µM [3] of less than 50%.
Molecule `CCCCN=c1scc(C2(c3ccc(SC)cc3)CCC2)n1CCCC` [Example 58, 3-Butyl-2-butylimino-4-[1-(4-methylthiophenyl)cyclobutyl]-2,3-dihydrothiazole hydrobromide] has an inhibition at 1 µM [1] of 92%, an inhibition at 1 µM [2] of less than 50% and an inhibition at 1 µM [3] of less than 50%.
In the case of `CCCCN=c1scc(C2(c3ccc(Oc4ccccc4)cc3)CCC2)n1CCCC` [Example 59, 3-Butyl-2-butylimino-4-[1-(4-phenoxyphenyl)cyclobutyl]-2,3-dihydrothiazole hydrobromide], the inhibition at 1 µM [1] is reported as 73%, the inhibition at 1 µM [2] is reported as less than 50% and the inhibition at 1 µM [3] is reported as less than 50%.
`CCCCN=c1scc(C2(c3ccc(Cl)cc3)CCCC2)n1CCCC` [Example 60, 3-Butyl-2-butylimino-4-[1-(4-chlorophenyl)cyclopentyl]-2,3-dihydrothiazole hydrobromide] showed an inhibition at 1 µM [1] of 106%, an inhibition at 1 µM [2] of less than 50% and an inhibition at 1 µM [3] of less than 50%.
With `CCCCN=c1scc(C2(c3ccccc3)CCCCC2)n1CCCC` [Example 61, 3-Butyl-2-butylimino-4-(1-phenylcyclohexyl)-2,3-dihydrothiazole hydrobromide] the inhibition at 1 µM [1] was 68%, the inhibition at 1 µM [2] was less than 50% and the inhibition at 1 µM [3] was less than 50%.
With `CCCCN=c1scc(C(C)(C)c2ccc(Cl)cc2)n1CCCC` [Example 62, 3-Butyl-2-butylimino-4-[1-(4-chlorophenyl)-1-methylethyl]-2,3-dihydrothiazole hydrobromide] the inhibition at 1 µM [1] was 55%, the inhibition at 1 µM [2] was less than 50% and the inhibition at 1 µM [3] was less than 50%.
In the case of `CCCCN=c1scc(C(C)(C)c2ccc(Cl)c(Cl)c2)n1CCCC` [Example 63, 3-Butyl-2-butylimino-4-[1-(3,4-dichlorophenyl)-1-methylethyl]-2,3-dihydrothiazole hydrobromide], the inhibition at 1 µM [1] is reported as 107%, the inhibition at 1 µM [2] is reported as 52% and the inhibition at 1 µM [3] is reported as less than 50%.
Work on `Clc1ccc(C2(c3csc(=NCCc4ccccc4)n3CCc3ccccc3)CCC2)cc1` [Example 64, 4-[1-(4-Chlorophenyl)cyclobutyl]-3-phenethyl-2-phenethylimino-2,3-dihydrothiazole hydrobromide] yielded an inhibition at 1 µM [1] of 102%, an inhibition at 1 µM [2] of less than 50% and an inhibition at 1 µM [3] of less than 50%.
`COc1ccc(CCN=c2scc(C3(c4ccc(Cl)cc4)CCC3)n2CCc2ccc(OC)c(OC)c2)cc1OC` [Example 65, 4-[1-(4-Chlorophenyl)cyclobutyl]-3-(3,4-dimethoxyphenethyl)-2-(3,4-dimethoxyphenethylimino)-2,3dihydrothiazole hydrobromide] gave an inhibition at 1 µM [1] of 54%, an inhibition at 1 µM [2] of less than 50% and an inhibition at 1 µM [3] of less than 50%.
`COc1ccc(CCN=c2scc(C3(c4ccc(Br)cc4)CCC3)n2CCc2ccc(OC)c(OC)c2)cc1OC` [Example 66, 4-[1-(4-Bromophenyl)cyclobutyl]-3-(3,4-dimethoxyphenethyl)-2-(3,4-dimethoxyphenethylimino)-2,3-dihydrothiazole hydrobromide] gave an inhibition at 1 µM [1] of 58%, an inhibition at 1 µM [2] of less than 50% and an inhibition at 1 µM [3] of less than 50%.
`COc1ccc(CCN=c2scc(C3(c4ccc(Cl)cc4)CCCC3)n2CCc2ccc(OC)c(OC)c2)cc1OC` [Example 67, 4-[1-(4-Chlorophenyl)cyclopentyl]-3-(3,4-dimethoxyphenethyl)-2-(3,4-dimethoxyphenethylimino)-2,3-dihydrothiazole hydrobromide] was tested, and the inhibition at 1 µM [1] was 88%, the inhibition at 1 µM [2] was less than 50% and the inhibition at 1 µM [3] was less than 50%.
With `COc1ccc(CCN=c2scc(C3(c4ccccc4)CCCCC3)n2CCc2ccc(OC)c(OC)c2)cc1OC` [Example 68, 3-(3,4-Dimethoxyphenethyl)-2-(3,4-dimethoxyphenethylimino)-4-(1-phenylcyclohexyl)-2,3-dihydrothiazole hydrobromide] the inhibition at 1 µM [1] was 65%, the inhibition at 1 µM [2] was less than 50% and the inhibition at 1 µM [3] was less than 50%.
With `COc1ccc(CCN=c2scc(C(C)(C)c3ccc(Cl)c(Cl)c3)n2CCc2ccc(OC)c(OC)c2)cc1OC` [Example 69, 4-[l-(3,4-Dichlorophenyl)-1-methylethyl]-3-(3,4-dimethoxyphenethyl)-2-(3,4-dimethoxyphenethylimino)-2,3-dihydrothiazole hydrobromide] the inhibition at 1 µM [1] was 58%, the inhibition at 1 µM [2] was less than 50% and the inhibition at 1 µM [3] was less than 50%.
In the case of `Brc1ccc(C2(C3=CSC4=NCCN34)CCC2)cc1` [Example 70, 3-[1-(4-Bromophenyl)cyclobutyl]-5,6-dihydroimidazo[2,1-b]thiazole hydrobromide], the inhibition at 1 µM [1] is reported as 80%, the inhibition at 1 µM [2] is reported as less than 50% and the inhibition at 1 µM [3] is reported as 52%.
Work on `Clc1ccc(C2(C3=CSC4=NCCN34)CCCC2)cc1` [Example 71, 3-[1-(4-Chlorophenyl)cyclopentyl]-5,6-dihydroimidazo[2,1-b]thiazole hydrobromide] yielded an inhibition at 1 µM [1] of 96%, an inhibition at 1 µM [2] of less than 50% and an inhibition at 1 µM [3] of 76%.
Molecule `C1=C(C2(c3ccccc3)CCCCC2)N2CCN=C2S1` [Example 72, 3-(1-Phenylcyclohexyl)-5,6-dihydroimidazo[2,1-b]thiazole hydrobromide] has an inhibition at 1 µM [1] of 70%, an inhibition at 1 µM [2] of less than 50% and an inhibition at 1 µM [3] of less than 50%.
`CC(C)(C1=CSC2=NCCN12)c1ccc(Cl)cc1` [Example 73, 3-[1-(4-Chlorophenyl)-1-methylethyl]-5,6-dihydroimidazo[2,1-b]thiazole hydrobromide] was tested, and the inhibition at 1 µM [1] was 59%, the inhibition at 1 µM [2] was less than 50% and the inhibition at 1 µM [3] was less than 50%.
In the case of `Fc1cccc(C2(C3=CSC4=NCCN34)CCC2)c1` [Example 75, 3-[1-(3-Fluorophenyl)cyclobutyl]-5,6-dihydroimidazo[2,1-b]thiazole hydrobromide], the inhibition at 1 µM [1] is reported as less than 50%, the inhibition at 1 µM [2] is reported as 53% and the inhibition at 1 µM [3] is reported as less than 50%.
For `CSc1ccc(C2(C3=CSC4=NCCN34)CCC2)cc1` [Example 76, 3-[1-(4-Methylthiophenyl)cyclobutyl]-5,6-dihydroimidazo[2,1-b]thiazole hydrobromide], the inhibition at 1 µM [1] was less than 50%, the inhibition at 1 µM [2] was 81% and the inhibition at 1 µM [3] was less than 50%.
